Experiments:
[1] = biological target: Mitogen-activated protein kinase 1 (Homo sapiens, UniProt P28482); test: Inhibition of human MAPK1 at 10 uM after 60 mins by TR-FRET assay; settings: values are per cent of control
[2] = biological target: Macrophage-stimulating protein receptor (Homo sapiens) (UniProt Q04912); test: Inhibition of human Ron at 10 uM after 60 mins by TR-FRET assay; settings: values are per cent of control
[3] = biological target: Ribosomal protein S6 kinase alpha-1 (Homo sapiens) (UniProt Q15418); test: Inhibition of human Rsk1 at 10 uM after 60 mins by TR-FRET assay; settings: values are per cent of control
Ribosomal protein S6 kinase alpha-1 (Homo sapiens), sequence (Q15418 whole entry): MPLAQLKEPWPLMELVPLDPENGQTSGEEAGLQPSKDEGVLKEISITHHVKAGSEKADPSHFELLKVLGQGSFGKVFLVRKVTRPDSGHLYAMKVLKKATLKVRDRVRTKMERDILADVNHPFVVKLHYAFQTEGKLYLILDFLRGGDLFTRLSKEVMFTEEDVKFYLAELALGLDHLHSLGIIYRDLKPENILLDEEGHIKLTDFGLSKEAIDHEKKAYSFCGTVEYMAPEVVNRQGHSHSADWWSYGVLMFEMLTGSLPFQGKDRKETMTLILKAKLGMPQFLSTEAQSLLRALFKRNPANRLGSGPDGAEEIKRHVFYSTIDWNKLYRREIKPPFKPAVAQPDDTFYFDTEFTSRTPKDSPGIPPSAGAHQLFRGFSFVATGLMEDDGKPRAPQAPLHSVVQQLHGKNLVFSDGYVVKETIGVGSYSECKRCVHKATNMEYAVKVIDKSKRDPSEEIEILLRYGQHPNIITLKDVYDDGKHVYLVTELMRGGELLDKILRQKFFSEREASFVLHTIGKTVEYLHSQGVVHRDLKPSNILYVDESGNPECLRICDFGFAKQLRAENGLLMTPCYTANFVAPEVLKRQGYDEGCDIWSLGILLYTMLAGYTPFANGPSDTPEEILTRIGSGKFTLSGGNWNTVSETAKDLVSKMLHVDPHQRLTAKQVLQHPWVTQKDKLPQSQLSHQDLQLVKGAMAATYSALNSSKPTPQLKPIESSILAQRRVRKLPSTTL

[4] = biological target: Mitogen-activated protein kinase 11 (Homo sapiens) (UniProt Q15759); test: Inhibition of human SAPK2b at 10 uM after 60 mins by TR-FRET assay; settings: values are per cent of control
Mitogen-activated protein kinase 11 (Homo sapiens), sequence (Q15759 whole entry): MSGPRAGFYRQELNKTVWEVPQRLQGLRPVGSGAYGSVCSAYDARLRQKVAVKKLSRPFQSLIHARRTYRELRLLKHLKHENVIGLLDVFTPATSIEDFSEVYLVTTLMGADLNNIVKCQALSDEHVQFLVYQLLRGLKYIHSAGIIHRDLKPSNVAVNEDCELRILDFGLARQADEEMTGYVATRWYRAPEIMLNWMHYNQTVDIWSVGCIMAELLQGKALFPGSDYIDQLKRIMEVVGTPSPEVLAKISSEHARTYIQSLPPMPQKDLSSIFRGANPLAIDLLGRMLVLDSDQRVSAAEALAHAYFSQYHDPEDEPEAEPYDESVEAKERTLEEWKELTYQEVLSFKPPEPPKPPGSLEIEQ

[5] = biological target: Mitogen-activated protein kinase 12 (Homo sapiens) (UniProt P53778); test: Inhibition of human SAPK3 at 10 uM after 60 mins by TR-FRET assay; settings: values are per cent of control
Mitogen-activated protein kinase 12 (Homo sapiens), sequence (P53778 whole entry): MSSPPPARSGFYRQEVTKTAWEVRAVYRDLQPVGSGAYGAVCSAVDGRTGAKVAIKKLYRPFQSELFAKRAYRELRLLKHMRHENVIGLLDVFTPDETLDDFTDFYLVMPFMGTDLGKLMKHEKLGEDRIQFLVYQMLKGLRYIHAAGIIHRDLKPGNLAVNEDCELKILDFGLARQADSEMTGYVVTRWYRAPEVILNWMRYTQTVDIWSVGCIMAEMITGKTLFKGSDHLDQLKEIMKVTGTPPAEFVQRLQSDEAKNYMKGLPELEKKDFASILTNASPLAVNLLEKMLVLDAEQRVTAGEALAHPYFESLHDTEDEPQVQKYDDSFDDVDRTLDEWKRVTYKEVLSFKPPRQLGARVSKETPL

[6] = biological target: Ribosomal protein S6 kinase alpha-6 (Homo sapiens) (UniProt Q9UK32); test: Inhibition of human Rsk4 at 10 uM after 60 mins by TR-FRET assay; settings: values are per cent of control
Ribosomal protein S6 kinase alpha-6 (Homo sapiens), sequence (Q9UK32 whole entry, looked up): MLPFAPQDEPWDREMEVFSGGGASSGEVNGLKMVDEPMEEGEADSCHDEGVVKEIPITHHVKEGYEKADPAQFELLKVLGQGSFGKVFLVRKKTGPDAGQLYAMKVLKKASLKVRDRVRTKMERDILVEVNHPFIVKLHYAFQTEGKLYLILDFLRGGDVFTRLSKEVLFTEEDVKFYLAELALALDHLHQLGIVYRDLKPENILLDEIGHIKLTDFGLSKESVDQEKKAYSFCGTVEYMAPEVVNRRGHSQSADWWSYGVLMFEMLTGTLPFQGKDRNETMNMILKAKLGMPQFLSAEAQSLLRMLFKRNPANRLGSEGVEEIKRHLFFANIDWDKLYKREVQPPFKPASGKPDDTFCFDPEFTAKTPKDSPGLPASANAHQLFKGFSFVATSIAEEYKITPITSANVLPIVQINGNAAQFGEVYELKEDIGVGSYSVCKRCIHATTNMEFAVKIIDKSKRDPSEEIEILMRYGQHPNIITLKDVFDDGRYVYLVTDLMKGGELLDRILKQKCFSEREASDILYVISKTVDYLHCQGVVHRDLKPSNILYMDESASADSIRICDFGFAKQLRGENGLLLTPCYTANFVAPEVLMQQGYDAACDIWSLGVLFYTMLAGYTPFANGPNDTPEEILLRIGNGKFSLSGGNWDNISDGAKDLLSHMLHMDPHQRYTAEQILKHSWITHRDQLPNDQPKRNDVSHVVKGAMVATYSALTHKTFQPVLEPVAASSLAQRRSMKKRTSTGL

[7] = biological target: Mitogen-activated protein kinase kinase kinase kinase 2 (Homo sapiens) (UniProt Q12851); test: Inhibition of human GCK at 10 uM after 60 mins by TR-FRET assay; values are per cent of control
[8] = biological target: Vascular endothelial growth factor receptor 3 (Homo sapiens) (UniProt P35916); test: Inhibition of human Flt4 at 10 uM after 60 mins by TR-FRET assay; values are per cent of control
[9] = biological target: Dual specificity mitogen-activated protein kinase kinase 1 (Homo sapiens) (UniProt Q02750); test: Inhibition of human MEK1 at 10 uM after 60 mins by TR-FRET assay; values are per cent of control
Dual specificity mitogen-activated protein kinase kinase 1 (Homo sapiens), sequence (Q02750 whole entry): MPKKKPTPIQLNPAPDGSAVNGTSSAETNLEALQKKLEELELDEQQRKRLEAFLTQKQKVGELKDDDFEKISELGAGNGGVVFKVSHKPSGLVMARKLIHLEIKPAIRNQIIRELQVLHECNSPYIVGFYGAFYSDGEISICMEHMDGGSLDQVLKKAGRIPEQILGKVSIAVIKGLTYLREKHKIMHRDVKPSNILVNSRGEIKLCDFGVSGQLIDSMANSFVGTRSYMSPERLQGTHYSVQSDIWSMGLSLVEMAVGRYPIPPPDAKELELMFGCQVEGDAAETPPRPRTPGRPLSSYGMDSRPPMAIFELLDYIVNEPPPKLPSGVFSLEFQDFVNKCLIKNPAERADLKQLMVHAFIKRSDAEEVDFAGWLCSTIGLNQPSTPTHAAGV

[10] = biological target: Angiopoietin-1 receptor (Homo sapiens) (UniProt Q02763); test: Inhibition of human Tie2 at 10 uM after 60 mins by TR-FRET assay; values are per cent of control
[11] = biological target: Activin receptor type-1B (Homo sapiens) (UniProt P36896); test: Inhibition of human ALK4 at 10 uM after 60 mins by TR-FRET assay; values are per cent of control
[12] = biological target: Discoidin domain-containing receptor 2 (Homo sapiens) (UniProt Q16832); test: Inhibition of human DDR2 at 10 uM after 60 mins by TR-FRET assay; values are per cent of control
Discoidin domain-containing receptor 2 (Homo sapiens), sequence (Q16832 whole entry, the tested form may be a part): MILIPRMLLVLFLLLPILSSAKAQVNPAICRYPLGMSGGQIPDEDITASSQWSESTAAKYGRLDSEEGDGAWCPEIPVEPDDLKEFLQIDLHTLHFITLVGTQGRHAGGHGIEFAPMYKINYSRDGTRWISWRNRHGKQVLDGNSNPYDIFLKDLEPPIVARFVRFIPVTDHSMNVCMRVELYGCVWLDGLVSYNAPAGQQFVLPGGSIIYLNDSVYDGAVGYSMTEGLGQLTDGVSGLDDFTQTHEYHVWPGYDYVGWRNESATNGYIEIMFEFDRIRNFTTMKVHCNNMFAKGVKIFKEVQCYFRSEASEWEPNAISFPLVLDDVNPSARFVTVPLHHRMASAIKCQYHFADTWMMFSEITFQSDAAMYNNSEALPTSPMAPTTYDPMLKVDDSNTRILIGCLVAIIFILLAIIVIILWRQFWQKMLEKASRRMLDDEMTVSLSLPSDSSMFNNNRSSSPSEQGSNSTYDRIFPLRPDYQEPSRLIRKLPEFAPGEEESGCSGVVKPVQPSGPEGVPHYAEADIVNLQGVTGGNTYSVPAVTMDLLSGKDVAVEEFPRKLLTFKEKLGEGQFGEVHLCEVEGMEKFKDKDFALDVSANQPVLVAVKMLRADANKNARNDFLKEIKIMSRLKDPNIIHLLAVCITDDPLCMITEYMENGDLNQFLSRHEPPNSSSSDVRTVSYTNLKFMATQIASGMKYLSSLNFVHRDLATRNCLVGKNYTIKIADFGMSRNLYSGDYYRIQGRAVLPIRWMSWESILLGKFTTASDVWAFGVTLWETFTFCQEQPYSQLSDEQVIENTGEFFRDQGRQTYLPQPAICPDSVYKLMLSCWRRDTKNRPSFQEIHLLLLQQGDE

[13] = biological target: Homeodomain-interacting protein kinase 3 (Homo sapiens) (UniProt Q9H422); test: Inhibition of human HIPK3 at 10 uM after 60 mins by TR-FRET assay; values are per cent of control
[14] = biological target: LIM domain kinase 1 (Homo sapiens) (UniProt P53667); test: Inhibition of human LIMK1 at 10 uM after 60 mins by TR-FRET assay; values are per cent of control
LIM domain kinase 1 (Homo sapiens), sequence (P53667 whole entry, looked up, the tested form may be a part): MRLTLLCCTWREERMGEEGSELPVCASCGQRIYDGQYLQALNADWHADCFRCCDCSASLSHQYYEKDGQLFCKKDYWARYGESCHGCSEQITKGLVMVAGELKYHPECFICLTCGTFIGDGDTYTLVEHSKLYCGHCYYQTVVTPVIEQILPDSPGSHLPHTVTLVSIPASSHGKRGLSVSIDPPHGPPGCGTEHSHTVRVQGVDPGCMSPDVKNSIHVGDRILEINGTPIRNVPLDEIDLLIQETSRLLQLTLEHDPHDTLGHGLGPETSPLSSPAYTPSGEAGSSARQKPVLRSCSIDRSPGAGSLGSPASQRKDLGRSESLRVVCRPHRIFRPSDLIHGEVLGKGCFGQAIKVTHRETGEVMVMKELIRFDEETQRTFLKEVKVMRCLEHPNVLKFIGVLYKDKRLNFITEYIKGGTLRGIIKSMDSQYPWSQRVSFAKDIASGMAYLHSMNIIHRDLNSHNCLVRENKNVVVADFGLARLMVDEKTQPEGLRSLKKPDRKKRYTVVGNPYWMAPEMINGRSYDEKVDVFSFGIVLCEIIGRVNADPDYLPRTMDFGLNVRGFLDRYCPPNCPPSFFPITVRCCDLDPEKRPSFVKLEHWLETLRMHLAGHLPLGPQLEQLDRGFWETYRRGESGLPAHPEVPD

[15] = biological target: Serine/threonine-protein kinase BRSK1 (Homo sapiens) (UniProt Q8TDC3); test: Inhibition of human BrSK1 at 10 uM after 60 mins by TR-FRET assay; values are per cent of control
Serine/threonine-protein kinase BRSK1 (Homo sapiens), sequence (Q8TDC3 whole entry): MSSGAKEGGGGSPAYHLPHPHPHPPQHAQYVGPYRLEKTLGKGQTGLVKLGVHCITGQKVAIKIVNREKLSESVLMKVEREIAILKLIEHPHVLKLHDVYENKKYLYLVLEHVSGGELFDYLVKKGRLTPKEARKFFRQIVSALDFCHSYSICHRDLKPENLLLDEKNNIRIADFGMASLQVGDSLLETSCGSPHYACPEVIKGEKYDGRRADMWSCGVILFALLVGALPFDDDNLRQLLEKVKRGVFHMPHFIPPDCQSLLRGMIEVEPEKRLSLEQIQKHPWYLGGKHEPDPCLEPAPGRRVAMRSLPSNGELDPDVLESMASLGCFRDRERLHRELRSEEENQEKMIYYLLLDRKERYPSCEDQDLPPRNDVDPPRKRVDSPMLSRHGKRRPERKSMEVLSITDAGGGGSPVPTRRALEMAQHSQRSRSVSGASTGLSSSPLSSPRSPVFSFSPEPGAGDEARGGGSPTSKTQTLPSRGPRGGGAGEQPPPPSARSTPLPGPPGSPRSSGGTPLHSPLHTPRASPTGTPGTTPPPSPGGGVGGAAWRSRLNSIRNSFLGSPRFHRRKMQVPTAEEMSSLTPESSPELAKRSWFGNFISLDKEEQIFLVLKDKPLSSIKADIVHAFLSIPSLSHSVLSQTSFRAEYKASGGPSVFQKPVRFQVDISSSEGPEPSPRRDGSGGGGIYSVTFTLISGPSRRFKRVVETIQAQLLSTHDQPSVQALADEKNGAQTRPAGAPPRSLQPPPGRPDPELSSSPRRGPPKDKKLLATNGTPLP

[16] = biological target: Death-associated protein kinase 2 (Homo sapiens) (UniProt Q9UIK4); test: Inhibition of human DAPK2 at 10 uM after 60 mins by TR-FRET assay; values are per cent of control
[17] = biological target: Receptor-interacting serine/threonine-protein kinase 2 (Homo sapiens) (UniProt O43353); test: Inhibition of human RIPK2 at 10 uM after 60 mins by TR-FRET assay; values are per cent of control
[18] = biological target: Rho-associated protein kinase 2 (Homo sapiens) (UniProt O75116); test: Inhibition of human ROCK-2 at 10 uM after 60 mins by TR-FRET assay; values are per cent of control
[19] = biological target: Cyclin-dependent kinase 5/CDK5 activator 1 (Homo sapiens) (UniProt Q00535+Q15078); test: Inhibition of human CDK5/p35 at 10 uM after 60 mins by TR-FRET assay; values are per cent of control
[20] = biological target: Calcium/calmodulin-dependent protein kinase type II subunit beta (Homo sapiens) (UniProt Q13554); test: Inhibition of human CaMK2beta at 10 uM after 60 mins by TR-FRET assay; values are per cent of control
[21] = biological target: Calcium/calmodulin-dependent protein kinase type II subunit gamma (Homo sapiens) (UniProt Q13555); test: Inhibition of human CaMK2gamma at 10 uM after 60 mins by TR-FRET assay; values are per cent of control
[22] = biological target: Serine/threonine-protein kinase MARK2 (Homo sapiens) (UniProt Q7KZI7); test: Inhibition of human PAR-1Balpha at 10 uM after 60 mins by TR-FRET assay; values are per cent of control
[23] = biological target: Cyclin-dependent kinase 2/cyclin E (Homo sapiens) (UniProt P24864+P24941+O96020); test: Inhibition of human CDK2/cyclinE at 10 uM after 60 mins by TR-FRET assay; values are per cent of control
[24] = system: Tyrosine-protein kinase ABL1 (Homo sapiens), P00519 [M351T]; test: Inhibition of human Abl M351T mutant at 10 uM after 60 mins by TR-FRET assay; values are per cent of control
[25] = system: Serine/threonine-protein kinase Chk2 (Homo sapiens), O96017 [I157T]; test: Inhibition of human CHK2 I157T mutant at 10 uM after 60 mins by TR-FRET assay; values are per cent of control
[26] = system: Serine/threonine-protein kinase Chk2 (Homo sapiens), O96017 [R145W]; test: Inhibition of human CHK2 R145W mutant at 10 uM after 60 mins by TR-FRET assay; values are per cent of control
[27] = system: Mast/stem cell growth factor receptor Kit (Homo sapiens), P10721 [D816H]; test: Inhibition of human c-Kit D816H mutant at 10 uM after 60 mins by TR-FRET assay; values are per cent of control
[28] = system: Platelet-derived growth factor receptor alpha (Homo sapiens), P16234 [V561D]; test: Inhibition of human PDGFRalpha V561D mutant at 10 uM after 60 mins by TR-FRET assay; values are per cent of control

residual activity [1]: 109%
residual activity [2]: 110%
residual activity [3]: 105%
residual activity [4]: 90%
residual activity [5]: 110%
residual activity [6]: 109%
residual activity [7]: 103%
residual activity [8]: 95%
residual activity [9]: 110%
residual activity [10]: 103%
residual activity [11]: 112%
residual activity [12]: 94%
residual activity [13]: 109%
residual activity [14]: 101%
residual activity [15]: 102%
residual activity [17]: 111%
residual activity [18]: 101%
residual activity [19]: 96%
residual activity [20]: 113%
residual activity [21]: 118%
residual activity [22]: 110%
residual activity [23]: 108%
residual activity [24]: 109%
residual activity [25]: 108%
residual activity [26]: 108%
residual activity [27]: 114%
residual activity [28]: 107%
Compound: S=c1[nH]nc(-c2ccncc2)n1-c1ccc2ccccc2c1
residual activity [16]: 108%

— ChEMBL document CHEMBL1641539 (Bioorg Med Chem Lett, 2011)
